Data taken from patent publication US7470831B1, “Genetic method” (Syngenta Limited, priority 1997, dated 2008).
Read-outs that look alike come from different tables or passages of the source.

What was measured:
[1] = test system: palcA:cyInv transgenic tobacco plants
Experimental: (§1) Phenotypic modification started 72 hours after ethanol induction and was strongest after 96 hours. The final phenotype was identical to the previously published results using the 35S CaMV promoter to drive the expression of cytosolic yeast invertase (Sonnewald et al Plant J. 1, 95 (1991)). Development of this phenotype followed maximal invertase activity and was most severe in transformant 28. Photosynthesis fluorescence measurements were used to monitor changes of quantum yield (Schreiber et al, in Ecophysiology of Photosynthesis Vol. 100, Schuize and Caldwell, Eds (Springer Verlag, Berlin, 1994), pp 49-70.) of all three transformant lines in vivo throughout the induction experiment.

[2] = test system: palc:Inv transgenic tobacco plants; details: 1% ethanol root drench
Experimental: as §1
Fluorescence measurements were used to monitor changes in photosynthetic parameters during induction of invertase activity using the PAM-2000 instrument (Walz, Effeltrich, Germany). Quantum use efficiency (quantum yield) of photosystem II (PSII) was measured by applying a saturating light beam on light adapted leaves of wildtype and transformed plants (palc:Inv). Before each measurement, it was verified that the saturating pulse had reached a plateau to allow an accurate determination of Fm′. The intensities of the measuring and saturating light beam were adjusted to reach a FO′ value close to 0.4. Measurements were conducted on different leaves having reached 8% (A), 15% (B), or 45% (C) of maximal leaf area of five plants of each genotype at the indicated time points.
Quantum yield of three succeeding light adapted leaves (leaf A-C) starting from the top of the plant was measured using a PAM-2000 instrument at the time points indicated. Values given are the means +−SE (n=5). For plants of line 28, quantum yield was reduced by 23% (p<0.05) and 27% (p<0.05) and for plants of line 10 only by 6% and 17% (p<0.05), respectively.

[3] = test system: alcA promoter (p35S:alcR / palcA:CAT transgenic tobacco line)
Experimental: (§2) A selected seedling was grown to maturity to produce a homozygous line. Seedlings of this plant were tested for CAT protein in comparison to seedlings of a similar plant transformed with a construct which expressed CAT from the constitutive high activity CaMV 35S promoter (Table 1).
(§3) Individual seedlings from a homozygous transgenic tobacco line carrying the CAT gene expressed from the alcA promoter were compared with those from a similar line transformed with p35S:CAT. […] Induction was achieved by the addition of 0.1% ethanol to the growth medium for 120 h. The induction medium was replaced at 58 h to maintain ethanol concentrations. One leaf was taken prior to induction, and one leaf after induction. CAT ELISA (Boehringer Mannheim) was performed on crude cell extracts; total protein was determined as described previously (Bradford, Anal Biochem 72: 243 (1976). All values are ng CAT protein per mg total protein, and represent the mean of nine individual replicates±one standard deviation.

[4] = test system: CaMV 35S promoter (p35S:CAT transgenic tobacco line)
Experimental: as §2, §3

CCO [Ethanol, ethanol]
invertase activity in transgenic plants at two ethanol concentrations ([1]; 5% vs 1% ethanol (FIG. 3)): dose-dependent | time after first addition of ethanol at which elevated invertase activity was measurable ([1]; lines 10, 27 and 28, root drench 100 ml 1% ethanol (v/v)): 6 h | time after initial root drenching at which invertase activity reached a plateau ([1]; lines 10 and 27, root drench 100 ml 1% ethanol, repeated at 48 and 72 hours): 96 h | start of phenotypic modification after ethanol induction ([1]; palcA:cyInv lines, strongest after 96 hours): 72 h | reduction of quantum yield ([2]; line 10, leaf B (15% of maximal leaf area)): 6% | reduction of quantum yield ([2]; line 10, leaf C (45% of maximal leaf area), p<0.05): 17% | reduction of quantum yield ([2]; line 28, leaf B (15% of maximal leaf area), p<0.05): 23% | reduction of quantum yield ([2]; line 28, leaf C (45% of maximal leaf area), p<0.05): 27% | CAT activity of induced palc:CAT seedlings relative to ethanol-treated p35S:CAT seedlings ([3]; ethanol-induced palc:CAT vs ethanol-treated p35S:CAT): 55% | CAT activity of induced palc:CAT seedlings relative to untreated p35S:CAT seedlings ([3]; ethanol-induced palc:CAT vs untreated p35S:CAT): 39% | CAT protein level ([3]; homozygous palcA:CAT seedlings, 0.1% ethanol in growth medium for 120 h, mean of nine replicates ± one SD): 30.37 ± 3.91 ng CAT protein per mg total protein | reduction in CAT protein levels relative to the untreated control ([4]; ethanol-treated p35S:CAT seedlings): 29% | CAT protein level ([4]; p35S:CAT seedlings, 0.1% ethanol in growth medium for 120 h, mean of nine replicates ± one SD): 55.46 ± 10.85 ng CAT protein per mg total protein
